Patent US8394848B2, “Compounds that modulate intracellular calcium” (Calcimedica, Inc., priority 2008, dated 2013)

tested on: JR251 or RBL cells; experiment: Store-operated calcium entry, either JR251 or RBL cells, or both; assay type: cell-based
Procedure: The day prior to performing the assay, RBL-2H3 cells are plated in 50 μL of complete medium in a 384 well plate. Cells are grown at 37° C./6% CO2 overnight and grow to 50-60% confluence by the next day. On the assay day, 1.5 μM Fluo-4-AM dye (Invitrogen) in complete medium is added and incubated for 1 hour at RT. Cells are washed twice in Ca^2+-free HBSS buffer and 35 μL Ca^2+-free HBSS buffer is added to each well. 10 μL of a test compound prepared in a Ca^2+-free HBSS solution at 4.5× of the desired concentration is added to a well and incubated for 5 minutes at RT. 10 μL of thapsigargin prepared in a Ca^2+-free HBSS solution at 5.5× of the desired concentration (5.5 uM) is added to each well and incubated for an additional 25 minutes. The initial baseline fluorescence signal is measured with a FLIPR^384 (Molecular Devices) plate reader. 5 μL of 12× calcium in HBSS (12 mM) is added and changes in cellular fluorescence are measured with the FLIPR^384 plate reader. In each well, the change in the fluorescent signal as a function of time due to calcium entry into the cell is determined by calculating the difference between the fluorescent signal measured 7 seconds after calcium addition and the initial baseline fluorescence signal at time zero (t=0). This parameter is designated Upslope. The IC50 value is calculated as the concentration at which 50% of the Upslope is inhibited.

IC50, < 10 µM:
N#C/C(=C\c1ccco1)C(=O)Nc1scc(-c2ccc(Cl)cc2)c1C(=O)O [(E)-4-(4-chlorophenyl)-2-(2-cyano-3-(furan-2-yl)acrylamido)thiophene-3-carboxylic acid]
O=C(O)c1c(-c2ccc(Cl)cc2)csc1NC(=O)c1csc2nnsc12 [4-(4-chlorophenyl)-2-(thieno[2,3-d][1,2,3]thiadiazole-6-carboxamido)thiophene-3-carboxylic acid]
O=C(Nc1scc(-c2cc(F)c(Cl)cc2F)c1C(=O)O)c1nc2ccccc2o1 [2-(benzo[d]oxazole-2-carboxamido)-4-(4-chloro-2,5-difluorophenyl)thiophene-3-carboxylic acid]
Cc1ccsc1C(=O)Nc1scc(-c2ccccc2Br)c1C(=O)O [4-(2-bromophenyl)-2-(3-methylthiophene-2-carboxamido)thiophene-3-carboxylic acid]
O=C(Nc1scc(-c2ccc(Cl)cc2)c1C(=O)O)c1ccno1 [4-(4-chlorophenyl)-2-(isoxazole-5-carboxamido)thiophene-3-carboxylic acid]
Cc1ccc(-c2csc(NC(=O)c3scc(S(=O)(=O)c4ccc(Cl)cc4)c3C)c2C(=O)O)cc1 [2-(4-(4-chlorophenylsulfonyl)-3-methylthiophene-2-carboxamido)-4-p-tolylthiophene-3-carboxylic acid]
Cc1ccc(-c2csc(NC(=O)c3nc4ccccc4s3)c2C(=O)O)c(F)c1F [2-(benzo[d]thiazole-2-carboxamido)-4-(2,3-difluoro-4-methylphenyl)thiophene-3-carboxylic acid]
O=C(Nc1scc(-c2ccc(Br)cc2)c1C(=O)O)c1cc2c(F)cccn2n1 [4-(4-bromophenyl)-2-(4-fluoropyrazolo[1,5-a]pyridine-2-carboxamido)thiophene-3-carboxylic acid]
O=C(O)c1c(-c2ccc(Cl)cc2)csc1NC(=O)C1Cc2ccccc2C1 [4-(4-chlorophenyl)-2-(2,3-dihydro-1H-indene-2-carboxamido)thiophene-3-carboxylic acid]
O=C(Nc1scc(-c2ccc3c(c2)CCC3)c1C(=O)O)c1nc2ccccc2o1 [2-(benzo[d]oxazole-2-carboxamido)-4-(2,3-dihydro-1H-inden-5-yl)thiophene-3-carboxylic acid]
O=C(CCc1ccc(F)cc1F)Nc1scc(-c2ccc(Cl)cc2)c1C(=O)O [4-(4-chlorophenyl)-2-(3-(2,4-difluorophenyl)propanamido)thiophene-3-carboxylic acid]
O=C(Nc1scc(-c2ccc(Br)cc2)c1C(=O)O)c1nc2cccc(F)c2o1 [4-(4-bromophenyl)-2-(7-fluorobenzo[d]oxazole-2-carboxamido)thiophene-3-carboxylic acid]
O=C(O)c1c(-c2ccc(Cl)cc2)csc1NC(=O)C1Cc2cc(Cl)ccc2O1 (stereo not shown) [2-(5-chloro-2,3-dihydrobenzofuran-2-carboxamido)-4-(4-chlorophenyl)thiophene-3-carboxylic acid]
O=C(Nc1scc(-c2ccc(Cl)cc2)c1C(=O)O)c1ccc2ncsc2c1 [2-(benzo[d]thiazole-6-carboxamido)-4-(4-chlorophenyl)thiophene-3-carboxylic acid]
O=C(Nc1scc(-c2ccc(Cl)c(F)c2)c1C(=O)O)c1nc2ccccc2o1 [2-(benzo[d]oxazole-2-carboxamido)-4-(4-chloro-3-fluorophenyl)thiophene-3-carboxylic acid]
Cc1ccc(-c2csc(NC(=O)c3nc4cccc(C#N)c4o3)c2C(=O)O)c(F)c1F [2-(7-cyanobenzo[d]oxazole-2-carboxamido)-4-(2,3-difluoro-4-methylphenyl)thiophene-3-carboxylic acid]
COc1ccc2oc(-c3csc(NC(=O)c4cc5ccccc5o4)c3C(=O)O)cc2c1 [2-(benzofuran-2-carboxamido)-4-(5-methoxybenzofuran-2-yl)thiophene-3-carboxylic acid]
O=C(Nc1scc(-c2cc(F)c(Cl)c(F)c2)c1C(=O)O)c1cc2ccccc2o1 [2-(benzofuran-2-carboxamido)-4-(4-chloro-3,5-difluorophenyl)thiophene-3-carboxylic acid]
O=C(O)c1c(-c2ccc(Br)cc2)csc1NC(=O)C(F)Cc1cc(F)c(F)cc1Cl (stereo not shown) [4-(4-bromophenyl)-2-(3-(2-chloro-4,5-difluorophenyl)-2-fluoropropanamido)thiophene-3-carboxylic acid]
Cc1cc(-c2csc(NC(=O)c3cc4ccccc4o3)c2C(=O)O)c(F)cc1Cl [2-(benzofuran-2-carboxamido)-4-(4-chloro-2-fluoro-5-methylphenyl)thiophene-3-carboxylic acid]
Cc1cccc2oc(C(=O)Nc3scc(-c4ccc(Cl)cc4)c3C(=O)O)nc12 [4-(4-chlorophenyl)-2-(4-methylbenzo[d]oxazole-2-carboxamido)thiophene-3-carboxylic acid]
Cn1ncc(C(=O)Nc2scc(-c3ccc(Br)cc3)c2C(=O)O)c1Cl [4-(4-bromophenyl)-2-(5-chloro-1-methyl-1H-pyrazole-4-carboxamido)thiophene-3-carboxylic acid]
Cc1ccsc1C(=O)Nc1scc(-c2ccc(Cl)cc2)c1C(=O)O [4-(4-chlorophenyl)-2-(3-methylthiophene-2-carboxamido)thiophene-3-carboxylic acid]
Cc1nnsc1C(=O)Nc1scc(-c2ccc(Br)cc2)c1C(=O)O [4-(4-bromophenyl)-2-(4-methyl-1,2,3-thiadiazole-5-carboxamido)thiophene-3-carboxylic acid]
O=C(NCc1ccccc1)Nc1scc(-c2ccc(Cl)cc2)c1C(=O)O [2-(3-benzylureido)-4-(4-chlorophenyl)thiophene-3-carboxylic acid]
O=C(Nc1scc(-c2ccc(Cl)cc2)c1C(=O)O)c1ccc(-c2cccs2)s1 [2-(2,2′-bithiophene-5-carboxamido)-4-(4-chlorophenyl)thiophene-3-carboxylic acid]
O=C(CCc1ccc(F)cc1)Nc1scc(-c2ccc(Cl)cc2)c1C(=O)O [4-(4-chlorophenyl)-2-(3-(4-fluorophenyl)propanamido)thiophene-3-carboxylic acid]
Cc1cc(C(F)(F)F)ccc1-c1csc(NC(=O)c2nc3ccccc3o2)c1C(=O)O [2-(benzo[d]oxazole-2-carboxamido)-4-(2-methyl-4-(trifluoromethyl)phenyl)thiophene-3-carboxylic acid]
Cn1nc(C(=O)Nc2scc(-c3ccc(Cl)cc3)c2C(=O)O)cc1-c1ccco1 [4-(4-chlorophenyl)-2-(5-(furan-2-yl)-1-methyl-1H-pyrazole-3-carboxamido)thiophene-3-carboxylic acid]
COc1ccc(-c2csc(NC(=O)CCc3ccccc3)c2C(=O)O)cc1 [4-(4-methoxyphenyl)-2-(3-phenylpropanamido)thiophene-3-carboxylic acid]
O=Cc1ccc(-c2csc(NC(=O)c3nc4ccccc4o3)c2C(=O)O)cc1 [2-(benzo[d]oxazole-2-carboxamido)-4-(4-formylphenyl)thiophene-3-carboxylic acid]
O=C(Nc1scc(-c2cc3cccc(O)c3o2)c1C(=O)O)c1ccc2snnc2c1 [2-(benzo[d][1,2,3]thiadiazole-5-carboxamido)-4-(7-hydroxybenzofuran-2-yl)thiophene-3-carboxylic acid]
O=C(CCc1ccccc1Cl)Nc1scc(-c2ccc(Cl)cc2)c1C(=O)O [4-(4-chlorophenyl)-2-(3-(2-chlorophenyl)propanamido)thiophene-3-carboxylic acid]
O=C(Nc1scc(-c2ccc(C(F)(F)F)cc2)c1C(=O)O)c1nc2ccccc2o1 [2-(benzo[d]oxazole-2-carboxamido)-4-(4-(trifluoromethyl)phenyl)thiophene-3-carboxylic acid]
Cc1ccc(-c2csc(NC(=O)c3scc(S(C)(=O)=O)c3Cl)c2C(=O)O)cc1 [2-(3-chloro-4-(methylsulfonyl)thiophene-2-carboxamido)-4-p-tolylthiophene-3-carboxylic acid]
Cc1ccc(-c2csc(NC(=O)c3ccsc3)c2C(=O)O)cc1 [2-(thiophene-3-carboxamido)-4-p-tolylthiophene-3-carboxylic acid]
Cc1ccc(-c2csc(NC(=O)c3nc4ccc(Br)cc4o3)c2C(=O)O)c(F)c1F [2-(6-bromobenzo[d]oxazole-2-carboxamido)-4-(2,3-difluoro-4-methylphenyl)thiophene-3-carboxylic acid]
